# Test results reported in US11498939B2, “Glucose polymers for peritoneal dialysis” (ROQUETTE FRERES, priority 2016, dated 2022).
# Test: Effects of the sterilization on GDP production
# Type: physicochemical
# Details: 4% solution in deionized water; sterilization at 121° C. for 15 minutes
# Experimental: In this example, the inventors studied the influence of sterilization on the production of GDPs, namely 5-hydroxymethyl furaldehyde (5-HMF), furaldehyde and 3,4-dideoxyglucosone-3-ene (3,4-DGE), of solutions using various glucose polymers or glucose.
# 20 ml solutions containing 4% of each of the substances to be tested were prepared in deionized water. The GDP content was measured after sterilization at 121° C. for 15 minutes.
# The 5-HMF and furaldehyde content was determined by liquid chromatography using 5-HMF standards (Merck—Ref. 8.206.78.001) or furaldehyde standards for the calibration respectively), and detection by UV spectrophotometry at 280 nm. For the chromatography, a column with a particle size of 9 μm, 8% crosslinking, an internal diameter of 7.8 mm and a length of 300 mm (HPX 87H column—Biorad—Ref. 125.0140) was used. The conditions were the following: eluent 5 mN H2SO4 […], flow rate of 0.8 ml/min.
# The 3,4-DGE content was determined by liquid chromatography (using pyrazinecarboxamide (Sigma—Ref. P7136) for the calibration) and detection by UV spectrophotometry at 230 nm. For the chromatography, a column with a particle size of 5 μm, a pore size of 120 Å size, an internal diameter of 4.6 mm and a length of 15 cm (Supelcosil LC-18—Supelco—Ref. 58230) was used. The conditions were the following: elution solvent H2O/MeOH, flow rate of 1.0 ml/min.
compound,measurement,value
"OC[C@H]1OC(O)[C@H](O)[C@@H](O)[C@@H]1O (stereo partly shown) [glucose, anhydrous dextrose]","GDP content after sterilization (5-HMF, furaldehyde, 3,4-DGE)",much higher than that of the glucose polymers
